Structures are written as SMILES.

Common to all, as to assay type: biochemical
In one assay the target is PKR wt (Homo sapiens, UniProt P30613). Nature of the assay: PKR WT Single Point Percent Activation Assay. The following applies: compound at 1 μM. The method, then: PKR WT Single Point Percent Activation Assay
(§1) A compound described herein was diluted with DMSO and tested at 1 μM concentration. The enzyme was diluted in 1× Buffer: (100 mM KCl, 50 mM Tris 7.5, 5 mM MgCl2, 1 mM DTT, 0.03% BSA). 2 μL of compound solution was first added into wells, and then 180 μL of enzyme solution was added. Assays were assembled except for ADP, and plates were stored for 60 minutes at RT. 20 μL ADP was added to start the assay and assay output was evaluated using OD340 at SpectraMax. The assay was run at room temperature.
PKR wt (100 ng/well), Tris pH 7.5 (50 mM), KCl (100 mM), MgCl2 (5 mM), ADP (0.48 mM), PEP (0.15 mM), NADH (180 μM), LDH (0.5 units, Sigma 59023), DTT (1 mM) and BSA (0.03%).

The next assay has as its target PKR R510Q (Homo sapiens, UniProt P30613, R510Q). Nature of the assay: PKR R510Q Single Point Percent Activation Assay. The following applies: compound at 1 μM; read-out: % Act. R510Q. On the procedure: PKR R510Q Single Point Percent Activation Assay
as §1
PKR R510Q (40 ng/well), Tris pH 7.5 (50 mM), KCl (100 mM), MgCl2 (5 mM), ADP (0.2 mM), PEP (0.11 mM), NADH (180 μM), LDH (0.5 units, Sigma 59023), DTT (1 mM) and BSA (0.03%).

A further assay deals with PKR T384W (Homo sapiens, UniProt P30613). Nature of the assay: PKR T384W Single Point Percent Activation Assay. The following applies: compound at 1 μM. On the procedure:
PKR T384W Single Point Percent Activation Assay
A compound described herein was diluted with DMSO and tested at 1 μM concentration. The enzyme was diluted in 1× Buffer: (100 mM KCl, 50 mM Tris 7.5, 5 mM MgCl2, 1 mM DTT, 0.03% BSA). 2 μL of compound solution was first added into wells, and then 180 μL enzyme solution was added. Assays were assembled except for ADP, and plates were stored for 60 minutes at RT. 20 μL ADP was added to start the assay and assay output was evaluated using OD340 at SpectraMax. The assay was run at room temperature.
PKR T384W soluble (300 ng/well), Tris pH 7.5 (50 mM), KCl (100 mM), MgCl2 (5 mM), ADP (0.08 mM), PEP (0.23 mM), NADH (180 μM), LDH (0.5 units, Sigma 59023), DTT (1 mM) and BSA (0.03%).

Another assay has as its target PKR R532W (Homo sapiens, UniProt P30613, R532W). The assay can be described thus: PKR R532W Single Point Percent Activation Assay. The following applies: compound at 1 μM; for activation at 1 µM: read-out: % Act. R532W. The method, then: PKR R532W Single Point Percent Activation Assay
as §1
PKR R532W (100 ng/well), Tris pH 7.5 (50 mM), KCl (100 mM), MgCl2 (5 mM), ADP (0.36 mM), PEP (0.1 mM), NADH (180 μM), LDH (0.5 units, Sigma 59023), DTT (1 mM) and BSA (0.03%).

Sequence of PKR T384W (P30613 whole entry T384M): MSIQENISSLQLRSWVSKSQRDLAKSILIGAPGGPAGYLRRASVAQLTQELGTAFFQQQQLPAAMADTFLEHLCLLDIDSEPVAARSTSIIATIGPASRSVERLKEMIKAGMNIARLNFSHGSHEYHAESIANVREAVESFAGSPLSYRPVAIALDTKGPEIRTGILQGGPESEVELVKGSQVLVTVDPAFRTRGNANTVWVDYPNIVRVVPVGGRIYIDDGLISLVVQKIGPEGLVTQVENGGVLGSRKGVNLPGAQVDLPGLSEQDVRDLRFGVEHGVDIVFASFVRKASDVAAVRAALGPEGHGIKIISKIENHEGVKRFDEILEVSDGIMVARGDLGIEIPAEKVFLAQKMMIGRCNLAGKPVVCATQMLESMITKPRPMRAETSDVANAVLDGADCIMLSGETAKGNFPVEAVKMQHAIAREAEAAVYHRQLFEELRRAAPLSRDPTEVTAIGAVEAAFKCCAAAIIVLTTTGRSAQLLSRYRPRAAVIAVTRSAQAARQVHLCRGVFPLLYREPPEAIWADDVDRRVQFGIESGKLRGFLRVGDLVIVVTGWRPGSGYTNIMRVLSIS
Sequence of PKR wt (P30613 whole entry): as the sequence (P30613 whole entry T384M) above, with M384T counted along it
Sequence of PKR R510Q (P30613 whole entry R510Q): as the sequence (P30613 whole entry T384M) above, with M384T, R510Q counted along it
Sequence of PKR R532W (P30613 whole entry R532W): as the sequence (P30613 whole entry T384M) above, with M384T, R532W counted along it

Regarding `COc1cc(NS(=O)(=O)c2cccc3cccnc23)ccc1C(=O)N1CC(C)(O)C1`, the activation at 1 µM on PKR wt is 101 to 500%; at PKR R510Q it was 101 to 500%; at PKR R532W, 1 to 100%. On PKR T384W, the “% Act. T384W” value is given as “B (a % activation at 1 μM of from 101 to 500)”.
`COc1cc(NS(=O)(=O)c2cccc3cccnc23)ccc1C(=O)N1CC(OC(=O)NC(C)C)C1`: the activation at 1 µM at PKR wt, on PKR R510Q and on PKR R532W was 101 to 500% throughout. The “% Act. T384W” value at PKR T384W is recorded as “B (a % activation at 1 μM of from 101 to 500)”.
Take `O=C(NC1CN(C(=O)c2ccc(NS(=O)(=O)c3cccc4cccnc34)c(F)c2)C1)c1ccccn1`: the results for the activation at 1 µM on PKR wt, at PKR R510Q and at PKR R532W were 101 to 500%, 101 to 500% and 1 to 100%, respectively. Besides, on PKR T384W, the “% Act. T384W” value is on record as “B (a % activation at 1 μM of from 101 to 500)”.
In the case of `COc1cc(NS(=O)(=O)c2cccc3cccnc23)ccc1C(=O)N1CC(O)C1`, the activation at 1 µM at PKR wt, at PKR R510Q and at PKR R532W was 101 to 500% each time. In addition, the “% Act. T384W” value on PKR T384W was “A (a % activation at 1 μM of from 1 to 100)”.
With `COc1ccccc1NC1CN(C(=O)c2ccc(S(=O)(=O)Nc3cccc4cccnc34)cc2)C1`, the activation at 1 µM on PKR wt, at PKR R510Q and at PKR R532W was 101 to 500% each time. For the same compound, the “% Act. T384W” value on PKR T384W was “A (a % activation at 1 μM of from 1 to 100)”.
With `COc1cc(NS(=O)(=O)c2cccc3cccnc23)ccc1C(=O)N1CC(O)(c2ccccc2)C1`, the activation at 1 µM at PKR wt, at PKR R510Q and on PKR R532W was 101 to 500% in each case. Further, the “% Act. T384W” value at PKR T384W is listed as “B (a % activation at 1 μM of from 101 to 500)”.
Take `COc1ccccc1NC1CN(C(=O)c2ccc(NS(=O)(=O)c3cccc4cccnc34)cc2)C1`: the figures for the activation at 1 µM on PKR wt, on PKR R510Q and at PKR R532W were 1 to 100%, 101 to 500% and 1 to 100%, respectively. Besides, the “% Act. T384W” value at PKR T384W was “A (a % activation at 1 μM of from 1 to 100)”.
Turning to `Cc1cc(C(=O)N2CC(Nc3ccccc3)C2)ccc1NS(=O)(=O)c1cccc2cccnc12`, the activation at 1 µM on PKR wt, on PKR R510Q and at PKR R532W was 101 to 500% in each case. The “% Act. T384W” value on PKR T384W is on record as “B (a % activation at 1 μM of from 101 to 500)”.
With `COc1ccncc1NC1CN(C(=O)c2ccc(NS(=O)(=O)c3cccc4cccnc34)c(C)c2)C1`, the results for the activation at 1 µM at PKR wt, on PKR R510Q and on PKR R532W were 101 to 500%, 1 to 100% and 1 to 100%, respectively. At PKR T384W, the “% Act. T384W” value is “B (a % activation at 1 μM of from 101 to 500)”.
Regarding `O=C(Nc1ccccn1)OC1CN(C(=O)c2ccc(NS(=O)(=O)c3cccc4cccnc34)cc2)C1` [drawing 65], the activation at 1 µM on PKR wt, on PKR R510Q and on PKR R532W was 101 to 500% in each case. Further, the “% Act. T384W” value at PKR T384W is “B (a % activation at 1 μM of from 101 to 500)”.
Turning to `O=C(c1ccc(NS(=O)(=O)c2cccc3cccnc23)cc1)N1CC(=Cc2ccccc2)C1`, the activation at 1 µM on PKR wt, on PKR R510Q and at PKR R532W was 1 to 100% in each case. Besides, the “% Act. T384W” value at PKR T384W is on record as “A (a % activation at 1 μM of from 1 to 100)”.
As for `O=C(c1ccc(NS(=O)(=O)c2cccc3cccnc23)cc1)N1CC(Nc2ccccc2)C1`, the activation at 1 µM at PKR wt, at PKR R510Q and on PKR R532W was 1 to 100% in each case. In addition, the “% Act. T384W” value on PKR T384W was “A (a % activation at 1 μM of from 1 to 100)”.
For `O=C(c1ccc(NS(=O)(=O)c2cccc3cccnc23)c(F)c1)N1CC(Oc2ccccc2)C1`, the activation at 1 µM at PKR wt, at PKR R510Q and on PKR R532W was 101 to 500% in each case. Further, the “% Act. T384W” value at PKR T384W is given as “B (a % activation at 1 μM of from 101 to 500)”.
In the case of `Cc1cc(C(=O)N2CC(Nc3ccncc3)C2)ccc1NS(=O)(=O)c1cccc2cccnc12`, the results for the activation at 1 µM on PKR wt, at PKR R510Q and at PKR R532W were 101 to 500%, 1 to 100% and 1 to 100%, respectively. In addition, the “% Act. T384W” value at PKR T384W is given as “A (a % activation at 1 μM of from 1 to 100)”.
On to `COc1cc(C(=O)N2CC(OC(=O)Nc3ccccn3)C2)ccc1NS(=O)(=O)c1cccc2cccnc12`, for which the activation at 1 µM lay within 1 to 100% at PKR wt, 101 to 500% on PKR R510Q and 1 to 100% at PKR R532W. Also, on PKR T384W, the “% Act. T384W” value is on record as “A (a % activation at 1 μM of from 1 to 100)”.
On to `COc1cccnc1NC1CN(C(=O)c2ccc(NS(=O)(=O)c3cccc4cccnc34)c(C)c2)C1`, for which the activation at 1 µM at PKR wt, at PKR R510Q and at PKR R532W was 101 to 500% throughout. For the same compound, at PKR T384W, the “% Act. T384W” value is given as “B (a % activation at 1 μM of from 101 to 500)”.
Consider `Cc1cc(C(=O)N2CC(O)C2)ccc1NS(=O)(=O)c1cccc2cccnc12`, for which the activation at 1 µM on PKR wt, on PKR R510Q and on PKR R532W was 101 to 500% each time. Moreover, at PKR T384W, the “% Act. T384W” value is “A (a % activation at 1 μM of from 1 to 100)”.
Consider `COC1(Cc2ccccc2)CN(C(=O)c2ccc(NS(=O)(=O)c3cccc4cccnc34)cc2)C1`, for which the activation at 1 µM on PKR wt, at PKR R510Q and on PKR R532W was 101 to 500% each time. For the same compound, the “% Act. T384W” value on PKR T384W is recorded as “B (a % activation at 1 μM of from 101 to 500)”.
On to `COc1ccccc1OC1CN(C(=O)c2ccc(NS(=O)(=O)c3cccc4cccnc34)cc2)C1`, for which the activation at 1 µM on PKR wt was 101 to 500%; at PKR R510Q, 101 to 500%; on PKR R532W, 1 to 100%. Besides, the “% Act. T384W” value on PKR T384W is reported as “B (a % activation at 1 μM of from 101 to 500)”.
Take `COc1ccccc1NC1CN(C(=O)c2ccc(NS(=O)(=O)c3cccc4cccnc34)c(C)c2)C1`: the activation at 1 µM at PKR wt is 1 to 100%; at PKR R510Q, 101 to 500%; at PKR R532W, 1 to 100%. At PKR T384W, the “% Act. T384W” value is “A (a % activation at 1 μM of from 1 to 100)”.
Take `O=C(OC1CN(C(=O)c2ccc(NS(=O)(=O)c3cccc4cccnc34)cc2)C1)c1ccccn1`: the activation at 1 µM lay in the range of 101 to 500% on PKR wt, 101 to 500% on PKR R510Q and 1 to 100% at PKR R532W. Moreover, on PKR T384W, the “% Act. T384W” value was “B (a % activation at 1 μM of from 101 to 500)”.
For `COc1ccccc1N(C)C1CN(C(=O)c2ccc(NS(=O)(=O)c3cccc4cccnc34)cc2)C1` [drawing 21], the activation at 1 µM on PKR wt and on PKR R510Q was 101 to 500% each time. On PKR T384W, the “% Act. T384W” value is “A (a % activation at 1 μM of from 1 to 100)”. Besides, the “% Act. R532W” value on PKR R532W is “B (a % activation at 1 μM of from 101 to 500)”.
As for `Cc1cc(C(=O)N2CC(Nc3ccccn3)C2)ccc1NS(=O)(=O)c1cccc2cccnc12` [drawing 55], the activation at 1 µM on PKR wt, at PKR R510Q and on PKR R532W was 1 to 100% in each case. Further, the “% Act. T384W” value at PKR T384W is reported as “B (a % activation at 1 μM of from 101 to 500)”.
Regarding `O=C(Nc1ccccn1)NC1CN(C(=O)c2ccc(NS(=O)(=O)c3cccc4cccnc34)cc2)C1`, the activation at 1 µM at PKR wt, at PKR R510Q and at PKR R532W was 101 to 500% each time. Also, the “% Act. T384W” value on PKR T384W is listed as “B (a % activation at 1 μM of from 101 to 500)”.
As to `COc1cc(C(=O)N2CC(Oc3ccccc3OC)C2)ccc1NS(=O)(=O)c1cccc2cccnc12`, the activation at 1 µM at PKR wt, at PKR R510Q and at PKR R532W was 101 to 500% throughout. On PKR T384W, the “% Act. T384W” value is on record as “B (a % activation at 1 μM of from 101 to 500)”.
Consider `Cc1cc(C(=O)N2CC(OC(=O)Nc3ccccn3)C2)ccc1NS(=O)(=O)c1cccc2cccnc12`, for which the activation at 1 µM at PKR wt is 1 to 100%; on PKR R510Q it was 101 to 500%; on PKR R532W it was 101 to 500%. Besides, the “% Act. T384W” value at PKR T384W is recorded as “A (a % activation at 1 μM of from 1 to 100)”.

(Values after patent US9388164B2, “Methods of using pyruvate kinase activators” (AGIOS PHARMACEUTICALS, INC, priority 2011, dated 2016).)
